These results are taken from ChEMBL document CHEMBL1764994, “QSAR-based permeability model for drug-like compounds” (Bioorg Med Chem, 2011).

The structures appear in SMILES notation.
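Throughout, for permeability: apparent permeability through Caco-2 cell membranes, with the permeated amount quantified by LC-MS/MS.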

The first data set concerns Caco-2. The settings on record: human, Caco-2, 2 h.
`CNC(=NCCSCc1csc(N=C(N)N)n1)NC#N` [TIOTIDINE] gave a logPapp of -5.66.
`CC(C(=O)O)c1ccc2c(c1)Cc1cccnc1O2` (centres undefined) [PRANOPROFEN] showed a logPapp of -4.39.
Regarding `CN1CCC[C@H]1c1cccnc1` [NICOTINE], the logPapp is listed as -4.58.
As for `C[C@](N)(Cc1ccc(O)c(O)c1)C(=O)O` [METHYLDOPA], the permeability result was “permeable”.
In the case of `CN/C(=N/CCSCc1nc[nH]c1C)NC#N` [CIMETIDINE], the logPapp was -5.88.
On the same count and under the same terms, as for `O=C(O)c1cc(/N=N/c2ccc(S(=O)(=O)Nc3ccccn3)cc2)ccc1O` [SULFASALAZINE], the figure is -6.61.
Still for that read-out and setting: next, `NCCc1ccc(O)c(O)c1` [DOPAMINE]: -5.03; `c1ccc(C2(N3CCCCC3)CCCCC2)cc1` [PHENCYCLIDINE]: -4.61; `CNC[C@H](O)c1ccc(O)c(O)c1` [EPINEPHRINE]: -6.02.
The same measure, in the same setting: as for `CC(C)NCC(O)COc1cccc2[nH]ccc12` (centres undefined) [PINDOLOL], the figure is -4.41.
With `COCCc1ccc(OCC(O)CNC(C)C)cc1` (centres undefined) [METOPROLOL], the permeability entry is on record as “permeable”.
On to `CC1(C)S[C@@H]2[C@H](NC(=O)[C@H](N)c3ccc(O)cc3)C(=O)N2[C@H]1C(=O)O` [AMOXICILLIN], for which the permeability result is “permeable”.
The molecule `CC(=O)[C@H]1CC[C@H]2[C@@H]3CCC4=CC(=O)CC[C@]4(C)[C@H]3CC[C@]12C` [PROGESTERONE] gave a logPapp of -4.55.
On the same count and under the same terms, next, `N[C@@H]1[C@H]2CN(c3nc4c(cc3F)c(=O)c(C(=O)O)cn4-c3ccc(F)cc3F)C[C@@H]12` [TROVAFLOXACIN]: -4.52.
On to `OC[C@@H](O)[C@@H](O)[C@H](O)[C@H](O)CO` [MANNITOL], for which the permeability result is listed as “permeable”.
On to `CC(C)(C)NC[C@H](O)COc1nsnc1N1CCOCC1` [TIMOLOL], for which the logPapp is recorded as -4.43.
As to `CNC(=C[N+](=O)[O-])NCCSCc1ccc(CN(C)C)o1` [RANITIDINE], the logPapp is given as -6.2 and the permeability result was “permeable”.
Molecule `C[C@H](CCC(=O)NCCS(=O)(=O)O)[C@H]1CC[C@H]2[C@@H]3[C@H](O)C[C@@H]4C[C@H](O)CC[C@]4(C)[C@H]3C[C@H](O)[C@]12C` [TAUROCHOLIC ACID] registered a logPapp of -4.46.
As to `CC(C(=O)O)c1cccc(C(=O)c2ccccc2)c1` (centres undefined) [KETOPROFEN], the permeability entry is reported as “permeable”.
Regarding `CC#Cc1cn([C@@H]2O[C@H](CO)[C@@H](O)[C@@H]2O)c(=O)[nH]c1=O` [NETIVUDINE], the logPapp is -6.17.
In the case of `Clc1cccc(Cl)c1N=C1NCCN1` [CLONIDINE], the logPapp was -4.66.
Same read-out and setting: next, `CCCc1nc2c(C)cc(-c3nc4ccccc4n3C)cc2n1Cc1ccc(-c2ccccc2C(=O)O)cc1`: -4.82.
Take `NC(=O)N1c2ccccc2C=Cc2ccccc21` [CARBAMAZEPINE]: the logPapp is -5.3 and the permeability entry is reported as “permeable”.
Consider `Cn1c(=O)c2[nH]cnc2n(C)c1=O.O` [THEOPHYLLINE], for which the logPapp was -4.4 and the permeability result was “permeable”.
The molecule `C=CCOc1ccccc1OCC(O)CNC(C)C` (centres undefined) [OXPRENOLOL] showed a logPapp of -4.21.
With `Cc1cc(=O)n(-c2ccccc2)n1C` [ANTIPYRINE], the permeability entry is listed as “permeable”.
`CC1(C)S[C@@H]2[C@H](NC(=O)Cc3ccccc3)C(=O)N2[C@H]1C(=O)O` [PENICILLIN G] registered a logPapp of -6.11.
Take `CC(C)n1c(/C=C/C(O)CC(O)CC(=O)O)c(-c2ccc(F)cc2)c2ccccc21` (centres undefined) [FLUVASTATIN]: the permeability entry was “permeable”.
Molecule `CC(C(=O)O)c1ccc(C(=O)c2ccccc2)s1` (centres undefined) [TIAPROFENIC ACID] showed a logPapp of -4.41.
On the same count and under the same terms, next, `Cc1ccc(/C(=C\CN2CCCC2)c2cccc(/C=C/C(=O)O)n2)cc1` [ACRIVASTINE]: -5.72.

For a further data set, the system named is Caco-2. The settings on record: human, Caco-2, 2 h. This is another data set of the same source.
The molecule `CC(C)[C@H](N)C(=O)OCCOCn1cnc2c(=O)[nH]c(N)nc21` [VALACYCLOVIR] showed a logPapp of -6.52.
Still for that read-out and setting: next, `CCOC(=O)[C@H](CCc1ccccc1)N[C@@H](C)C(=O)N1CCC[C@H]1C(=O)O`: -6.1; `CC[C@H](C)C(=O)O[C@H]1C[C@H](O)C=C2C=C[C@H](C)[C@H](CC[C@@H](O)C[C@@H](O)CC(=O)O)[C@H]21` [PRAVASTATIN]: -6.56.

Another data set concerns Caco-2. The conditions noted are these: human.
In turn, `CC(C)[C@H](N)C(=O)OCCOCn1cnc2c(=O)[nH]c(N)nc21` [VALACYCLOVIR] registered a logPapp of -6.3.
Still for that read-out and setting: as for `CCOC(=O)[C@H](CCc1ccccc1)N[C@@H](C)C(=O)N1CCC[C@H]1C(=O)O`, the figure is -5.7; as for `CC[C@H](C)C(=O)O[C@H]1C[C@H](O)C=C2C=C[C@H](C)[C@H](CC[C@@H](O)C[C@@H](O)CC(=O)O)[C@H]21` [PRAVASTATIN], -5.64.
